Data: PubChem BioAssay (NCI)
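1) Cells in 96-well plates. 2) Compound, 48 h, 5 concentrations. 3) Linear interpolation between surrounding doses. 4) Unreached endpoint = highest concentration. TGI marks complete inhibition of growth.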

Columns and labels:
Assay in all cases: NCI anticancer screen, dose series, 48 h
SNB-19 CNS = test system: SNB-19 CNS
DU-145 prostate = test system: DU-145 prostate
RPMI-8226 leukemia = test system: RPMI-8226 leukemia
M14 melanoma = test system: M14 melanoma
NCI-H23 lung = test system: NCI-H23 lung
MDA-MB-435 = test system: MDA-MB-435
TK-10 renal = test system: TK-10 renal
CAKI-1 renal = test system: CAKI-1 renal
A549 NSCLC = test system: A549 NSCLC
CCRF-CEM leukemia = test system: CCRF-CEM leukemia
HCC-2998 colon = test system: HCC-2998 colon
U251 CNS = test system: U251 CNS
T-47D breast = test system: T-47D breast
SN12C renal = test system: SN12C renal
UACC-257 melanoma = test system: UACC-257 melanoma

CCC(CS(=O)(=O)O)[N+](=O)[O-] (centres undefined)
TGI (SNB-19 CNS): > 100 µM
TGI (DU-145 prostate): > 100 µM
TGI (RPMI-8226 leukemia): > 100 µM
TGI (M14 melanoma): > 100 µM
TGI (NCI-H23 lung): > 100 µM
TGI (MDA-MB-435): > 100 µM
TGI (TK-10 renal): > 100 µM
TGI (CAKI-1 renal): > 100 µM
TGI (A549 NSCLC): > 100 µM
TGI (CCRF-CEM leukemia): > 100 µM
TGI (HCC-2998 colon): > 100 µM
TGI (U251 CNS): > 100 µM
TGI (T-47D breast): > 100 µM
TGI (SN12C renal): > 100 µM
TGI (UACC-257 melanoma): > 100 µM

COC(=O)C1=C(OC(=O)/C(=C/c2ccc(Cl)cc2Cl)c2ccc(Cl)cc2Cl)C(C(=O)OC)[C@@]2(O)[C@@H](C(=O)OC)[C@H](C)C[C@@H]1[C@@H]2C(=O)OC (some centres undefined)
TGI (SNB-19 CNS): > 100 µM
TGI (DU-145 prostate): > 100 µM
TGI (RPMI-8226 leukemia): > 100 µM
TGI (M14 melanoma): > 100 µM
TGI (NCI-H23 lung): > 100 µM
TGI (MDA-MB-435): > 100 µM
TGI (TK-10 renal): > 100 µM
TGI (CAKI-1 renal): > 100 µM
TGI (A549 NSCLC): > 100 µM
TGI (CCRF-CEM leukemia): > 100 µM
TGI (HCC-2998 colon): > 100 µM
TGI (U251 CNS): > 100 µM
TGI (T-47D breast): > 100 µM
TGI (SN12C renal): > 100 µM
TGI (UACC-257 melanoma): > 100 µM

COc1ccc(/C(CCl)=C(\Nc2ccccc2)c2ccc(OC)c(OC)c2)cc1OC
TGI (SNB-19 CNS): > 100 µM
TGI (DU-145 prostate): > 100 µM
TGI (RPMI-8226 leukemia): > 100 µM
TGI (M14 melanoma): > 100 µM
TGI (NCI-H23 lung): > 100 µM
TGI (MDA-MB-435): > 100 µM
TGI (TK-10 renal): > 100 µM
TGI (CAKI-1 renal): > 100 µM
TGI (A549 NSCLC): > 100 µM
TGI (CCRF-CEM leukemia): > 100 µM
TGI (HCC-2998 colon): > 100 µM
TGI (U251 CNS): > 100 µM
TGI (T-47D breast): > 100 µM
TGI (SN12C renal): > 100 µM
TGI (UACC-257 melanoma): > 100 µM

N#Cc1nc(CSCc2ccccc2)oc1N
TGI (DU-145 prostate): > 100 µM
TGI (M14 melanoma): > 100 µM
TGI (NCI-H23 lung): > 100 µM
TGI (MDA-MB-435): > 100 µM
TGI (TK-10 renal): > 100 µM
TGI (CAKI-1 renal): > 100 µM
TGI (A549 NSCLC): > 100 µM
TGI (CCRF-CEM leukemia): > 100 µM
TGI (HCC-2998 colon): > 100 µM
TGI (U251 CNS): > 100 µM
TGI (T-47D breast): > 100 µM
TGI (SN12C renal): > 100 µM
TGI (UACC-257 melanoma): > 100 µM

COC(=O)c1ccccc1/C=C1/Cc2cccc(C)c2C1=O
TGI (DU-145 prostate): > 100 µM
TGI (RPMI-8226 leukemia): > 100 µM
TGI (NCI-H23 lung): > 100 µM
TGI (MDA-MB-435): > 100 µM
TGI (TK-10 renal): > 100 µM
TGI (CAKI-1 renal): > 100 µM
TGI (A549 NSCLC): > 100 µM
TGI (CCRF-CEM leukemia): > 100 µM
TGI (HCC-2998 colon): > 100 µM
TGI (U251 CNS): > 100 µM
TGI (T-47D breast): > 100 µM
TGI (SN12C renal): > 100 µM
TGI (UACC-257 melanoma): > 100 µM

COc1ccc(C2=C(Cl)c3cc(OC)c(OC)cc3C2=O)cc1OC
TGI (SNB-19 CNS): > 100 µM
TGI (DU-145 prostate): 32.7 µM
TGI (RPMI-8226 leukemia): 87.1 µM
TGI (M14 melanoma): 18.1 µM
TGI (NCI-H23 lung): 26.7 µM
TGI (MDA-MB-435): 29.4 µM
TGI (TK-10 renal): 25.6 µM
TGI (CAKI-1 renal): 4.24 µM
TGI (A549 NSCLC): > 100 µM
TGI (CCRF-CEM leukemia): > 100 µM
TGI (HCC-2998 colon): 38.9 µM
TGI (T-47D breast): 10.9 µM
TGI (SN12C renal): 32.9 µM
TGI (UACC-257 melanoma): 15.5 µM

O=C(c1ccco1)C1CC(c2ccc3ccccc3c2O)=NN1 (centres undefined)
TGI (DU-145 prostate): > 100 µM
TGI (RPMI-8226 leukemia): > 100 µM
TGI (M14 melanoma): > 100 µM
TGI (NCI-H23 lung): > 100 µM
TGI (MDA-MB-435): > 100 µM
TGI (TK-10 renal): > 100 µM
TGI (CAKI-1 renal): > 100 µM
TGI (A549 NSCLC): > 100 µM
TGI (CCRF-CEM leukemia): > 100 µM
TGI (HCC-2998 colon): > 100 µM
TGI (U251 CNS): > 100 µM
TGI (T-47D breast): > 100 µM
TGI (SN12C renal): > 100 µM
TGI (UACC-257 melanoma): > 100 µM

COc1ccc(OC)c([N+](=O)[O-])c1-c1nc2sccn2c1/C=N/N=C(N)N
TGI (SNB-19 CNS): > 100 µM
TGI (DU-145 prostate): > 100 µM
TGI (RPMI-8226 leukemia): > 100 µM
TGI (M14 melanoma): > 100 µM
TGI (NCI-H23 lung): > 100 µM
TGI (MDA-MB-435): > 100 µM
TGI (TK-10 renal): > 100 µM
TGI (CAKI-1 renal): > 100 µM
TGI (A549 NSCLC): > 100 µM
TGI (CCRF-CEM leukemia): > 100 µM
TGI (HCC-2998 colon): 79.4 µM
TGI (U251 CNS): > 100 µM
TGI (T-47D breast): > 100 µM
TGI (SN12C renal): > 100 µM
TGI (UACC-257 melanoma): > 100 µM
